# In paper PMC5458078, “Global mapping of CARM1 substrates defines enzyme specificity and substrate recognition” (Nature Communications, 2017):
# Read-outs that look alike come from different tables or passages of the source.
# Tests used:
# MCF7 CARM1 KO cells = test: Quantitative MS of ADMA-containing peptides in MCF7 CARM1 KO cells expressing CARM1 28-608 or CARM1 140-608, and in CARM1 KO; type: cell-based, human
# MCF7 cells = test: Quantitative nanoLC-MS/MS (TMT) of ADMA-containing peptides, CARM1 KO vs parental; type: cell-based, human; set-up: Fold change KO/WT: scale not given here
# [1] = difference of log2 means, CARM1 140-608 vs WT
# [2] = difference of log2 means, KO vs WT
# [3] = MCF7 CARM1 knockout vs wild type, 3 biological replicates each, values are on log2 scale
# [4] = ADMA-containing peptide, CARM1 knockout (KO) vs wild type (WT) MCF7 cells, 6-plex TMT experiment #1, three biological replicates each, sheet "MCF7"
# [5] = CARM1 140-608 vs WT, mean of 3 replicates (log2 scale)
# [6] = KO vs WT, mean of 3 replicates (log2 scale)
# [7] = MCF7, CARM1 KO (KO1-KO3) vs wild type (WT1-WT3)
# [8] = log2 scale ratio, mean of n = 3
# [9] = ADMA-containing peptide, MCF7, CARM1 knockout (KO1-3) vs wild type (WT1-3), TMT 6-plex experiment #1
# [10] = CARM1 140-608 vs WT, mean of 3 replicates, log2
# [11] = KO vs WT, mean of 3 replicates, log2
# [12] = MCF7, CARM1 KO vs WT, three biological replicates each
# [13] = ratio on log2 scale, mean of 3 replicates
# [14] = MCF7, CARM1 knockout vs wild type, n = 3 each
# [15] = CARM1 140-608 versus WT, difference of mean log2 values
# [16] = CARM1 KO versus WT, difference of mean log2 values
# [17] = CARM1 KO vs wild type MCF7 cells, 3 biological replicates each
# [18] = CARM1 140-608 versus WT, mean of three replicates (log2)
# [19] = KO versus WT, mean of three replicates (log2)
substance,measurement,setting,value
AFSSrSYTSGPGSrISSSSFSR,CARM1 140-608/WT,MCF7 CARM1 KO cells; [1],-1.259
same,KO/WT,MCF7 CARM1 KO cells; [2],-1.022
same,Fold change KO/WT,MCF7 cells; [3],-1.022
STArFTLNPNPTGVQNPHIER,CARM1 140-608/WT,MCF7 CARM1 KO cells; [1],-1.926
same,KO/WT,MCF7 CARM1 KO cells; [2],-2.347
same,Fold change KO/WT,MCF7 cells; [4],-1.9764
QGSIGLYTQNQPLPAGGPrVDPYrPVrLPMQK,CARM1 140-608/WT,MCF7 CARM1 KO cells; [1],-2.266
same,KO/WT,MCF7 CARM1 KO cells; [2],-3.357
same,Fold change KO/WT,MCF7 cells; [4],-2.292
FIQPrPTLNQPPPPLIrPANSMPPR,CARM1 140-608/WT,MCF7 CARM1 KO cells; [5],0.9302
same,KO/WT,MCF7 CARM1 KO cells; [6],-1.231
same,Fold change KO/WT,MCF7 cells; [7],-1.957
RPEFMrGGGSGGGR,CARM1 140-608/WT,MCF7 CARM1 KO cells; [8],0.07419
same,KO/WT,MCF7 CARM1 KO cells; [8],0.64
same,Fold change KO/WT,MCF7 cells; [9],0.64
SPGVFRPEQDPVPrMPFEK,CARM1 140-608/WT,MCF7 CARM1 KO cells; [5],-0.5664
same,KO/WT,MCF7 CARM1 KO cells; [6],-2.083
same,Fold change KO/WT,MCF7 cells; [7],-2.083
VLGIIPSSTGTSQQTFTSFQPrTATVTIrPNTSGSGGTTSNSQVITGPQIrPGMTVIrTPLQQSTLGK,CARM1 140-608/WT,MCF7 CARM1 KO cells; [10],-2.572
same,KO/WT,MCF7 CARM1 KO cells; [11],-6.437
same,Fold change KO/WT,MCF7 cells; [12],-6.437
NDTKDDLGNLNVPDSSLPAENEATGPGFVPPPLAPIrGPLFPVDArGPFLR,CARM1 140-608/WT,MCF7 CARM1 KO cells; [13],0.1654
same,KO/WT,MCF7 CARM1 KO cells; [13],-2.602
same,Fold change KO/WT,MCF7 cells; [14],-2.279
QPVPFGLVrFGVAPDHPEVK,CARM1 140-608/WT,"MCF7 CARM1 KO cells; mean, CARM1 140-608 versus WT (log2 scale)",-1.417
same,KO/WT,"MCF7 CARM1 KO cells; mean, CARM1 KO versus WT (log2 scale)",-1.677
same,Fold change KO/WT,MCF7 cells; [14],-1.677
TDGFAEAIHSPQVAGVPrFR,CARM1 140-608/WT,MCF7 CARM1 KO cells; [15],-1.17
same,KO/WT,MCF7 CARM1 KO cells; [16],-1.53
same,Fold change KO/WT,MCF7 cells; [9],-1.53
KSTLKPQPAPQAGPIPVAPIGTLKPQPQPVPASYTTASTSSrPTFNVQVK,CARM1 140-608/WT,MCF7 CARM1 KO cells; [1],-2.692
same,KO/WT,MCF7 CARM1 KO cells; [2],-3.309
same,Fold change KO/WT,MCF7 cells; [3],-3.309
SIVPTMHYQDSLPrLPIPK,CARM1 140-608/WT,MCF7 CARM1 KO cells; [13],-1.626
same,KO/WT,MCF7 CARM1 KO cells; [13],-2.513
same,Fold change KO/WT,MCF7 cells; [14],-2.513
GPPPFPGVPLMSTPMGGPVPPPIrYGPPPQLCGPFGPrPLPPPFGPGMrPPLGLREFAPGVPPGrR,CARM1 140-608/WT,MCF7 CARM1 KO cells; [1],-1.1204
same,KO/WT,MCF7 CARM1 KO cells; [2],-2.997
same,Fold change KO/WT,MCF7 cells; [4],-2.997
QrLPFSAPPGSVVEASSNLR,CARM1 140-608/WT,MCF7 CARM1 KO cells; [1],-0.4663
same,KO/WT,MCF7 CARM1 KO cells; [2],-1.419
same,Fold change KO/WT,MCF7 cells; [3],-1.459
SSYLESPrGPrFDGPR,CARM1 140-608/WT,MCF7 CARM1 KO cells; [15],-2.628
same,KO/WT,MCF7 CARM1 KO cells; [16],-4.092
same,Fold change KO/WT,MCF7 cells; [17],-3.147
AVDLTKPYQNQQLSIrVPLR,CARM1 140-608/WT,MCF7 CARM1 KO cells; [10],-2.717
same,KO/WT,MCF7 CARM1 KO cells; [11],-4.115
same,Fold change KO/WT,MCF7 cells; [12],-2.685
QLQLQQQrMQLAQK,CARM1 140-608/WT,MCF7 CARM1 KO cells,-2.654
same,KO/WT,MCF7 CARM1 KO cells,-4.55
same,Fold change KO/WT,MCF7 cells; [3],-4.395
GMYNQrYHCPVPK,CARM1 140-608/WT,MCF7 CARM1 KO cells,-2.175
same,KO/WT,MCF7 CARM1 KO cells,-2.857
same,Fold change KO/WT,MCF7 cells; [9],-2.857
QLrMQLQQrLQGQQFLNQSR,CARM1 140-608/WT,MCF7 CARM1 KO cells; [18],-0.1108
same,KO/WT,MCF7 CARM1 KO cells; [19],-1.926
same,Fold change KO/WT,MCF7 cells; [4],-2.764
DGLTPVPPLAPAPrPPSSGLPAVLNPrPTLTPGrLPTPTLGTArAPMPTPTLVrPLLK,CARM1 140-608/WT,MCF7 CARM1 KO cells; [8],-0.2727
same,KO/WT,MCF7 CARM1 KO cells; [8],-4.325
same,Fold change KO/WT,MCF7 cells; [9],-3.645
GRPSSPrTPLYLQPDAYGSLDR,CARM1 140-608/WT,MCF7 CARM1 KO cells; [18],-1.266
same,KO/WT,MCF7 CARM1 KO cells; [19],-1.386
same,Fold change KO/WT,MCF7 cells; [7],-1.386
GIPLDAAAAYYLPrHLAPNPTYPHLYPPYLIrGYPDTAALENR,CARM1 140-608/WT,MCF7 CARM1 KO cells; [18],-0.9413
same,KO/WT,MCF7 CARM1 KO cells; [19],-1.386
same,Fold change KO/WT,MCF7 cells; [4],-1.386
GPVTPGGLPPrGLLGDAPNDPR,CARM1 140-608/WT,MCF7 CARM1 KO cells; [13],-1.495
same,KO/WT,MCF7 CARM1 KO cells; [13],-1.652
same,Fold change KO/WT,MCF7 cells; [14],-1.652
EPFLSrDPFHSLK,CARM1 140-608/WT,MCF7 CARM1 KO cells; [5],0.7405
same,KO/WT,MCF7 CARM1 KO cells; [6],1.534
same,Fold change KO/WT,MCF7 cells; [7],2.308
GrGTLTrGAFVGATAAPGYIAPGYGTPYGYSTAAPAYGLPK,CARM1 140-608/WT,MCF7 CARM1 KO cells; [8],-0.05087
same,KO/WT,MCF7 CARM1 KO cells; [8],0.2558
same,Fold change KO/WT,MCF7 cells; [9],0.06714
FFEAAAGSGSSAGAGDGAGPQrLPEPGGRPR,CARM1 140-608/WT,MCF7 CARM1 KO cells; [1],-1.027
same,KO/WT,MCF7 CARM1 KO cells; [2],-1.059
same,Fold change KO/WT,MCF7 cells; [4],-1.059
GQPrTWLQSPV,CARM1 140-608/WT,MCF7 CARM1 KO cells; [5],-2.79
same,KO/WT,MCF7 CARM1 KO cells; [6],-3.17
same,Fold change KO/WT,MCF7 cells; [7],-3.17
QSSATSSFGGLGGGSVrFGPGVAFrAPSIHGGSGGR,CARM1 140-608/WT,MCF7 CARM1 KO cells; [1],-1.331
same,KO/WT,MCF7 CARM1 KO cells; [2],-1.828
same,Fold change KO/WT,MCF7 cells; [3],-1.828
APESPPSADPALVAGPAEEAECPPPRQPQPAQNVLAAPrLR,CARM1 140-608/WT,MCF7 CARM1 KO cells; [18],-0.5501
same,KO/WT,MCF7 CARM1 KO cells; [19],-1.431
same,Fold change KO/WT,MCF7 cells; [4],-1.431
TSSGLFPrIPLQPQAPVSSIGSPVGTPK,CARM1 140-608/WT,MCF7 CARM1 KO cells; [10],0.8175
same,KO/WT,MCF7 CARM1 KO cells; [11],-2.603
same,Fold change KO/WT,MCF7 cells; [12],-2.869
CDPVPAANGAIrFHCDPTFWAK,CARM1 140-608/WT,MCF7 CARM1 KO cells; [15],-1.543
same,KO/WT,MCF7 CARM1 KO cells; [16],-1.494
same,Fold change KO/WT,MCF7 cells; [17],-1.494
GrGFAGVCGFGGPYGETVATGPYrAFR,CARM1 140-608/WT,MCF7 CARM1 KO cells; [13],-1.219
same,KO/WT,MCF7 CARM1 KO cells; [13],-1.965
same,Fold change KO/WT,MCF7 cells; [14],-1.965
APPVrYCIPGER,CARM1 140-608/WT,MCF7 CARM1 KO cells; [13],-3.736
same,KO/WT,MCF7 CARM1 KO cells; [13],-5.161
same,Fold change KO/WT,MCF7 cells; [14],-5.161
